Reference: US7288256B1, “T cell epitopes of the major allergens from dermatophagoides (house dust mite)” (Merck Patent GmbH, priority 1991, dated 2007)
Residues, ends and D or L forms follow the SMILES beside them.

B1: biochemically purified Der f I: Group I protein allergen of Dermatophagoides farinae, immunoaffinity purified native form (protein)
chain: TSACRINSVNVPSELDLRSLRTVTPIRMQGGCGSCWAFSGVAATESAYLAYRNTSLDLSEQELVDCASQHGCHGDTIPRGIEYIQQNGVVEERSYPYVAREQRCRRPNSQHYGISNYCQIYPPDVKQIREALTQTHTAIAVIIGIKDLRAFQHYDGRTIIQHDNGYQPNYHAVNIVGYGSTQGDDYWIVRNSWDTTWGDSGYGYFQAGNNLMMIEQYPYVVIM
B2: recombinant Der f I: recombinant Der f I expressed in E. coli as His6 fusion (protein)
chain: MGHHHHHHEFTSACRINSVNVPSELDLRSLRTVTPIRMQGGCGSCWAFSGVAATESAYLAYRNTSLDLSEQELVDCASQHGCHGDTIPRGIEYIQQNGVVEERSYPYVAREQRCRRPNSQHYGISNYCQIYPPDVKQIREALTQTHTAIAVIIGIKDLRAFQHYDGRTIIQHDNGYQPNYHAVNIVGYGSTQGDDYWIVRNSWDTTWGDSGYGYFQAGNNLMMIEQYPYVVIM
B3: rDer p II: recombinant Der p II expressed in E. coli as His6 fusion (protein)
chain: MGHHHHHHEFDQVDVKDCANHEIKKVLVPGCHGSEPCIIHRGKPFQLEAVFEANQNTKTAKIEIKASIDGLEVDVPGIDPNACHYMKCPLVKGQQYDIKYTWNVPKIAPKSENVVVTVKVMGDDGVLACAIATHAKIRD

Legend:
[1] = pH-stability profile of candidate peptides (percent degradant peak area by HPLC); conditions: for stability (in words): single peptide, aqueous buffer, pH 6 to pH 8, development of DPII-22.14; for solution stability in equal concentration combination: 3, 2 and 1 mg/ml per peptide, 24 hours at about 5° C. and about 22° C., common window within pH 6 to pH 8
Experimental: The concentration of filtered peptide solutions was determined by HPLC analysis. In this experiment, the solubility of peptide at each pH is defined as the amount of peptide remaining in solution after filtration through a membrane filter having a 0.2 micrometer pore size. The extent of degradation of peptides was estimated by calculating the percent of total degradant peak area over the total peak area.

[2] = pH-solubility profile of candidate peptides (HPLC of filtrate); type: physicochemical; conditions: for solubility (in words, against the superior solubility standard of 3 mg/ml): development of DPII-22.14 from DpII-22; for solubility thermodynamic at 24 h: at a pH in the pH range of pH 6 to pH 8, 50 mM sodium phosphate, about 22° C.
Experimental: Stock solution A: 0.66 g […] of monobasic sodium phosphate monohydrate U.S.P. and 50 mg EDTA disodium dihydrate, U.S.P. were dissolved in 100 mL of WFI. The solution was filtered through a 0.2 micron filter
Stock solution B: 0.71 g […] of dibasic sodium phosphate U.S.P. were disolved in 100 ml WFI. The solution was filtered through a 0.2 micron filter.
Dispersions A and B were sonicated for 2 minutes for good homogeneity. A small volume was pipetted from each dispersion into a labeled eppendoff vial according to the following volume ratio:
The resultant solutions/suspensions were stored in the dark at about 22° C.±2 for 24 hours without agitation. The solutions were filtered and filtrates were analyzed for pH and peptide concentration.

[3] = tested on: human IgE; experiment: Direct binding ELISA of IgE to mite allergen proteins and peptides (Examples XIII, XV); conditions: pooled human plasma from 20 mite skin test positive patients; coating antigen 5 μg/ml; FIGS. 19-21
Experimental: Corning assay plates (#25882-96) were coated with 5 μg/ml of each coating antigen listed in FIGS. 19, 20 and 21 at […] and incubated overnight at 4° C. The coating antigens were removed and the wells are blocked with 0.5% gelatin in PBS, 300 μl/well for 2 hours at room temperature. […] Louis, Mo.) and 100 μl/well a\was added and incubated overnight at 4° C. (plasma dilutions were tested in duplicate). The second antibody (biotinylated goat anti-Human IgE, 1:1000, Kirkegaard & Perry Laboratories Inc, Gaithersburg, Md.), was added at 100 μl/well for one hour at room temperature. This solution was removed and streptavidin-HRPO, 1:10000, (Southern Biotechnology Associates, Inc., Birmingham, Ala.) was then added at 100 μl/well for one hour at room temperature (all wells are washed three times with PBS-Tween between each incubation step). TMB Membrane Peroxidase Substrate system (Kirkegaard & Perry Laboratories) was freshly miced, and added at […]. The color was allowed to develop for 2-5 minutes. The reaction was stopped by the addition of […] of 1M phosphoric acid. Plates were read on a Microplate IL310 Autoreader (Biotech Instruments, Winooski, Vt.) with a 450 nm filter. The absorbance levels of duplicate wells were averaged. The order of coating antigens listed vertically in these figure legends corresponds in […] from left to right to the coating antigens listed for each histogram.

| IgE binding in direct ELISA [3] | Molecule | stability (in words) [1] | solubility (in words, against the superior solubility standard of 3 mg/ml) [2] | solution stability in equal concentration combination [1] | solubility thermodynamic at 24 h [2] | further results |
| --- | --- | --- | --- | --- | --- | --- |
|  | CC[C@H](C)[C@H](NC(=O)[C@H](CO)NC(=O)[C@H](C)NC(=O)[C@H](CCCCN)NC(=O)[C@@H](NC(=O)[C@H](CCC(=O)O)NC(=O)[C@@H](NC(=O)[C@H](CCCCN)NC(=O)[C@H](C)NC(=O)[C@@H](NC(=O)[C@H](CCCCN)NC(=O)[C@@H](NC(=O)[C@H](CC(N)=O)NC(=O)[C@H](CCC(N)=O)NC(=O)[C@H](CC(N)=O)NC(=O)[C@H](C)NC(=O)[C@H](CCC(=O)O)NC(=O)[C@H](Cc1ccccc1)NC(=O)[C@@H](NC(=O)[C@H](C)NC(=O)[C@H](CCC(=O)O)NC(=O)[C@H](CC(C)C)NC(=O)[C@@H](N)CCC(N)=O)C(C)C)[C@@H](C)O)[C@@H](C)O)[C@@H](C)CC)[C@@H](C)CC)C(=O)N[C@@H](CC(=O)O)C(=O)NCC(=O)N[C@@H](CC(C)C)C(=O)N[C@@H](CCC(=O)O)C(=O)N[C@H](C(=O)O)C(C)C [DP II-22] (H-QLEAVFEANQNTKTAKIEIKASIDGLEV-OH; N-terminus and C-terminus assumed) | stable | did not meet the “superior solubility” requirement of 3 mg/ml |  |  | stability (in words) ([1]; listed as QLEAVFEANQNTKTAKIEIKASIDGLEV): nor did it meet the stability requirement |
|  | CC[C@H](C)[C@H](NC(=O)CNC(=O)[C@H](CCC(=O)O)NC(=O)[C@@H](N)CC(=O)O)C(=O)N[C@@H](CCCCN)C(=O)N[C@@H](CC(=O)O)C(=O)N[C@@H](CC(C)C)C(=O)N[C@@H](CC(=O)O)C(=O)N[C@@H](C)C(=O)N[C@@H](Cc1ccccc1)C(=O)N[C@@H](CCCNC(=N)N)C(=O)N[C@@H](Cc1c[nH]cn1)C(=O)N[C@@H](Cc1ccc(O)cc1)C(=O)N[C@@H](CC(=O)O)C(=O)NCC(=O)N[C@@H](CCCNC(=N)N)C(=O)N[C@H](C(=O)N[C@H](C(=O)N[C@H](C(=O)N[C@@H](CCC(N)=O)C(=O)N[C@@H](CCCNC(=N)N)C(=O)N[C@@H](CC(=O)O)C(=O)N[C@@H](CC(N)=O)C(=O)NCC(=O)N[C@@H](Cc1ccc(O)cc1)C(=O)N[C@@H](CCC(=O)O)C(=O)O)[C@@H](C)CC)[C@@H](C)CC)[C@@H](C)O [DP I-26.6] (H-DEGIKDLDAFRHYDGRTIIQRDNGYE-OH; N-terminus and C-terminus assumed) |  |  | acceptable solution stability | > 3000 µg/mL |  |
|  | CC[C@H](C)[C@H](NC(=O)[C@H](CCC(=O)O)NC(=O)[C@H](C)NC(=O)[C@@H]1CCCN1C(=O)[C@H](C)NC(=O)[C@H](CC(N)=O)NC(=O)CNC(=O)[C@H](CC(N)=O)NC(=O)[C@@H](NC(=O)[C@@H](N)CO)[C@@H](C)CC)C(=O)N[C@@H](CC(=O)O)C(=O)N[C@@H](CC(C)C)C(=O)N[C@@H](CCCNC(=N)N)C(=O)N[C@@H](CCC(N)=O)C(=O)N[C@@H](CCSC)C(=O)N[C@@H](CCCNC(=N)N)C(=O)N[C@H](C(=O)N[C@H](C(=O)N[C@H](C(=O)N1CCC[C@H]1C(=O)N[C@H](C(=O)N[C@@H](CCCNC(=N)N)C(=O)N[C@@H](CCSC)C(=O)N[C@@H](CCC(N)=O)C(=O)O)[C@@H](C)CC)[C@@H](C)O)C(C)C)[C@@H](C)O [DP I-21.2] (H-SINGNAPAEIDLRQMRTVTPIRMQ-OH; N-terminus and C-terminus assumed) |  |  | acceptable solution stability | > 3000 µg/mL |  |
|  | CC[C@H](C)[C@H](NC(=O)[C@H](CO)NC(=O)[C@H](C)NC(=O)[C@H](CCCCN)NC(=O)[C@@H](NC(=O)[C@H](CCC(=O)O)NC(=O)[C@@H](NC(=O)[C@H](CCCCN)NC(=O)[C@H](C)NC(=O)[C@@H](NC(=O)[C@H](CCCCN)NC(=O)[C@@H](NC(=O)[C@H](CC(N)=O)NC(=O)[C@H](CCC(N)=O)NC(=O)[C@H](CC(N)=O)NC(=O)[C@H](C)NC(=O)[C@H](CCC(=O)O)NC(=O)[C@H](Cc1ccccc1)NC(=O)[C@@H](NC(=O)[C@H](C)NC(=O)[C@H](CCC(=O)O)NC(=O)[C@H](CC(C)C)NC(=O)[C@H](CCC(N)=O)NC(=O)[C@H](CCCCN)NC(=O)[C@@H](N)CC(=O)O)C(C)C)[C@@H](C)O)[C@@H](C)O)[C@@H](C)CC)[C@@H](C)CC)C(=O)N[C@@H](CC(=O)O)C(=O)NCC(=O)N[C@@H](CC(C)C)C(=O)N[C@@H](CCC(=O)O)C(=O)N[C@H](C(=O)N[C@@H](CC(=O)O)C(=O)O)C(C)C [DP II-22.6] (H-DKQLEAVFEANQNTKTAKIEIKASIDGLEVD-OH) | stability improved substantially | solubility did not reach the standard |  |  |  |
|  | CC(C)C[C@H](NC(=O)[C@H](Cc1ccc(O)cc1)NC(=O)[C@H](C)NC(=O)[C@H](CO)NC(=O)[C@H](CCC(=O)O)NC(=O)[C@@H](NC(=O)[C@H](C)NC(=O)[C@H](C)NC(=O)[C@@H](N)C(C)C)[C@@H](C)O)C(=O)N[C@@H](C)C(=O)N[C@@H](Cc1ccc(O)cc1)C(=O)N[C@@H](CCCNC(=N)N)C(=O)N[C@@H](CC(N)=O)C(=O)N[C@H](C(=O)N[C@@H](CO)C(=O)N[C@@H](CC(C)C)C(=O)N[C@@H](CC(=O)O)C(=O)N[C@@H](CC(C)C)C(=O)N[C@@H](CO)C(=O)N[C@@H](CCC(=O)O)C(=O)N[C@@H](CCC(N)=O)C(=O)N[C@@H](CCC(=O)O)C(=O)N[C@@H](CC(C)C)C(=O)N[C@H](C(=O)N[C@@H](CC(=O)O)C(=O)O)C(C)C)[C@@H](C)O [DF I-22.2] (H-VAATESAYLAYRNTSLDLSEQELVD-OH; N-terminus and C-terminus assumed) |  |  | acceptable solution stability | > 3000 µg/mL |  |
|  | CC[C@H](C)[C@H](NC(=O)[C@H](CO)NC(=O)[C@H](C)NC(=O)[C@H](CCCCN)NC(=O)[C@@H](NC(=O)[C@H](CCC(=O)O)NC(=O)[C@@H](NC(=O)[C@H](CCCCN)NC(=O)[C@H](C)NC(=O)[C@@H](NC(=O)[C@H](CCCCN)NC(=O)[C@@H](NC(=O)[C@H](CC(N)=O)NC(=O)[C@H](CCC(N)=O)NC(=O)[C@H](CC(N)=O)NC(=O)[C@H](C)NC(=O)[C@H](CCC(=O)O)NC(=O)[C@H](Cc1ccccc1)NC(=O)[C@@H](NC(=O)[C@H](C)NC(=O)[C@H](CCC(=O)O)NC(=O)[C@H](CC(C)C)NC(=O)[C@H](CCC(N)=O)NC(=O)[C@@H](N)CCCCN)C(C)C)[C@@H](C)O)[C@@H](C)O)[C@@H](C)CC)[C@@H](C)CC)C(=O)N[C@@H](CC(=O)O)C(=O)NCC(=O)N[C@@H](CC(C)C)C(=O)N[C@@H](CCC(=O)O)C(=O)N[C@H](C(=O)N[C@@H](CCCCN)C(=O)O)C(C)C [DP II-22.2] (H-KQLEAVFEANQNTKTAKIEIKASIDGLEVK-OH) | stability improved substantially | solubility did not reach the standard |  |  |  |
| binding | B1 |  |  |  |  |  |
| no detectable binding | B2 |  |  |  |  |  |
| good binding | B3 |  |  |  |  |  |
